Active and inactive are the calls of the source. No cut-off for these calls is given here.
Tests used:
[1] = Cytotoxicity against MDCK cells after 48 hrs by MTT assay; type: cell-based, Canis lupus familiaris; conditions: dog
Influenza A virus [2] = experiment: Antiviral activity against amantadine/oseltamivir-susceptible Influenza A virus (A/Singapore/1/57(H2N2)) infected in MDCK cells assessed as inhibition of viral replication after 48 hrs by hemagglutination test; type: functional, organism-based, Influenza A virus (A/Singapore/1/1957(H2N2))
H3N2 subtype = experiment: Antiviral activity against amantadine/oseltamivir-susceptible Influenza A virus (A/Aichi/2/68(H3N2)) infected in MDCK cells assessed as inhibition of viral replication after 48 hrs by hemagglutination test; type: functional, organism-based; conditions: A/Aichi/2/1968(H3N2)
Influenza A virus [3] = experiment: Antiviral activity against amantadine/oseltamivir-susceptible Influenza A virus (A/mallard/Netherlands/12/00(H7N3)) infected in MDCK cells assessed as inhibition of viral replication after 48 hrs by hemagglutination test; type: functional, organism-based, Influenza A virus (A/mallard/Netherlands/12/2000(H7N3))
Influenza A virus [4] = experiment: Antiviral activity against amantadine/oseltamivir-susceptible Influenza A virus (A/mallard/Pennsylvania/10218/84(H5N2)) infected in MDCK cells assessed as inhibition of viral replication after 48 hrs by hemagglutination test; type: functional, organism-based, Influenza A virus (A/mallard/Pennsylvania/10218/1984(H5N2))
[5] = Selectivity index, ratio of CC50 for MDCK cells to IC50 for amantadine/oseltamivir-susceptible Influenza A virus (A/Singapore/1/57(H2N2)); type: toxicity; conditions: dog, read-out: Ratio CC50/IC50
[6] = Selectivity index, ratio of CC50 for MDCK cells to IC50 for amantadine/oseltamivir-susceptible Influenza A virus (A/Aichi/2/68(H3N2)); type: toxicity; conditions: dog, read-out: Ratio CC50/IC50
[7] = Selectivity index, ratio of CC50 for MDCK cells to IC50 for amantadine/oseltamivir-susceptible Influenza A virus (A/mallard/Pennsylvania/10218/84(H5N2)); type: toxicity; conditions: dog, read-out: Ratio CC50/IC50
[8] = Selectivity index, ratio of CC50 for MDCK cells to IC50 for amantadine/oseltamivir-susceptible Influenza A virus (A/mallard/Netherlands/12/00(H7N3)); type: toxicity; conditions: dog, read-out: Ratio CC50/IC50
Influenza A virus [9] = experiment: Antiviral activity against Influenza A virus (A/Puerto Rico/8/34(H1N1)) infected in MDCK cells assessed as inhibition of viral replication at 500 uM up to 2 hrs post-infection by hemagglutination test; type: functional, organism-based; conditions: A/Puerto Rico/8/1934(H1N1)

## C[C@@H]1CC[C@@H]2[C@H](C1)OC1(CCCCC1)C[C@@]2(C)O
[1]
  CC50 at 48 h: 627 µM

## CCC1(CC)C[C@@](C)(O)[C@@H]2CC[C@@H](C)C[C@@H]2O1
[1]
  CC50 at 48 h: 188 µM

## C[C@@H]1CC[C@@H]2[C@H](C1)OC1(CCCC1)C[C@@]2(C)O
[1]
  CC50 at 48 h: 810 µM

## NC(=O)c1ncn([C@@H]2O[C@H](CO)[C@@H](O)[C@H]2O)n1 [RIBAVIRIN]
[1]
  CC50 at 48 h: > 2130 µM

## C[C@@H]1CC[C@@H]2[C@H](C1)OC(C)(C)CC2(C)O (some centres not stated)
[1]
  CC50 at 48 h: 72.2 µM

## CCC[C@H]1C[C@@](C)(O)[C@@H]2CC[C@@H](C)C[C@H]2O1
[1]
  CC50 at 48 h: > 1330 µM

## CCCC1(CCC)C[C@@](C)(O)[C@@H]2CC[C@@H](C)C[C@@H]2O1
[1]
  CC50 at 48 h: 131 µM

## C[C@@H]1CC[C@@H]2[C@@H](C1)OC(C)(C)C[C@]2(C)O
[1]
  CC50 at 48 h: 816 µM

## C[C@@H]1CC[C@@H]2[C@@H](C1)OC(C)(C)C[C@@]2(C)O
[1]
  CC50 at 48 h: > 1420 µM
Influenza A virus [2]
  IC50: 0.9 µM
H3N2 subtype
  IC50: > 1420 µM
Influenza A virus [3]
  IC50: 613 µM
Influenza A virus [4]
  IC50: 160 µM
[5]
  selectivity ratio: 1570
[6]
  selectivity ratio: 1
[7]
  selectivity ratio: 9
[8]
  selectivity ratio: 2
Influenza A virus [9]
  inhibition: Active

## C[C@@H]1CC[C@@H]2[C@H](C1)OC1(CCCCCC1)C[C@@]2(C)O
[1]
  CC50 at 48 h: 210 µM

## C[C@@H]1CC[C@@H]2[C@H](C1)OC1(CCCCCCC1)C[C@@]2(C)O
[1]
  CC50 at 48 h: 379 µM

## CC(N)C12CC3CC(CC(C3)C1)C2 (configuration not stated) [RIMANTADINE]
[1]
  CC50 at 48 h: 319 µM

## C[C@@H]1CC[C@@H]2[C@@H](C1)O[C@@H](C1CCCCC1)C[C@@]2(C)O
[1]
  CC50 at 48 h: 24.2 µM
